Measurements from US11560385B2, “Proteasome activity enhancing compounds” (Proteostasis Therapeutics, Inc., priority 2018, dated 2023).

These compounds were tested against T1, USP14 (Homo sapiens (Human), UniProt P54578) (assay: Usp14 inhibition assay (Example 57B, B-series compounds)). Conditions: IC50 class; average value from a minimum of two experimental determinations.
Assay type: biochemical
Description: Example 57B: Usp14 Inhibition Assay
(§1) The IC50 values in the Table below represent the average value from a minimum of two experimental determinations.

T1 sequence (P54578 whole entry, looked up): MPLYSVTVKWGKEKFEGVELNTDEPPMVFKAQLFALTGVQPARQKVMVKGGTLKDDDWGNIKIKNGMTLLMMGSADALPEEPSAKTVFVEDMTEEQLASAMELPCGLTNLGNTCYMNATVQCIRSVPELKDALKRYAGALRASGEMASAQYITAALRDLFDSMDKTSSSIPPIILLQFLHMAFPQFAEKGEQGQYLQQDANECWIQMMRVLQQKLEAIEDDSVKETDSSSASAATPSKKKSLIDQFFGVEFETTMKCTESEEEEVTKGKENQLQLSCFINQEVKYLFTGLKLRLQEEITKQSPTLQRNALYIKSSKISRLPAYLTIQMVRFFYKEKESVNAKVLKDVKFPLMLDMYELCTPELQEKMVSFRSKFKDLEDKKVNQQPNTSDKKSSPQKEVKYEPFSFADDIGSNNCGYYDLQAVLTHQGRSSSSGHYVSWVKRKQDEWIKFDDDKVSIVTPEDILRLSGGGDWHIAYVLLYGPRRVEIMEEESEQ

`Cc1cc(C(=O)CN2C3CCC2[C@@H](O)C3)c(C)n1-c1cc(F)c(Cl)c(F)c1` (mixture of isomers) [Example 118B, (±)-1-(1-(4-Chloro-3,5-difluorophenyl)-2,5-dimethyl-1H-pyrrol-3-yl)-2-((2R)-2-hydroxy-7-azabicyclo[2.2.1]heptan-7-yl)ethan-1-one] and `Cc1cc(C(=O)CN2C3CCC2[C@@H](O)C3)c(C)n1-c1ccc(C#N)c(F)c1F` (mixture of isomers) [Example 99B, (±)-2,3-Difluoro-4-(3-(2-((2R)-2-hydroxy-7-azabicyclo[2.2.1]heptan-7-yl)acetyl)-2,5-dimethyl-1H-pyrrol-1-yl)benzonitrile] cannot be ordered by IC50: over 500 nM for the first, over 500 nM for the second.

`Cc1c(C(=O)CN2C3CCC2[C@@H](O)C3)cc(C[C@H]2C[C@@H](C#N)C2)n1-c1ccc(C#N)cc1` (mixture of isomers) [Example 4B, (±)-4-(5-4(1s,3S)-3-cyanocyclobutyl)methyl)-3-(2-((1R,2R,4S)-2-hydroxy-7-azabicyclo[2.2.1]heptan-7-yl)acetyl)-2-methyl-1H-pyrrol-1-yl)benzonitrile] and `Cc1c(C(=O)CN2[C@@H]3CC[C@H]2[C@@H](O)C3)cc(CC2CC(C)(C)C2)n1-c1ccc(C#N)cc1` (racemic) [Example 134B, (±)-4-(5-((3,3-Dimethylcyclobutyl)methyl)-3-(2-((1R,2R,4S)-2-hydroxy-7-azabicyclo[2.2.1]heptan-7-yl)acetyl)-2-methyl-1H-pyrrol-1-yl)benzonitrile] cannot be ordered by IC50: under 50 nM for the first, under 50 nM for the second.

First: Cc1c(C(=O)CN2C3CCC2[C@@H](O)C3)cc(CC2CC(F)(F)C2)n1-c1ccc(C#N)cc1 (mixture of isomers) [Example 135B, (±)-4-(5-((3,3-Difluorocyclobutyl)methyl)-3-(2-((2R)-2-hydroxy-7-azabicyclo[2.2.1]heptan-7-yl)acetyl)-2-methyl-1H-pyrrol-1-yl)benzonitrile]
Second: Cc1c(C(=O)CN2C3CCC2[C@@H](O)C3)cc(CC(F)(F)F)n1-c1ccc(C#N)cc1 (mixture of isomers) [Example 115B, (±)-4-(3-(2-((2R)-2-Hydroxy-7-azabicyclo[2.2.1]heptan-7-yl)acetyl)-2-methyl-5-(2,2,2-trifluoroethyl)-1H-pyrrol-1-yl)benzonitrile]
The IC50 of the first is lower: under 50 nM for the first, 50 to 500 nM for the second. The first is the more potent here.

First: Cc1c(C(=O)CN2C3CCC2[C@@H](O)C3)cc(CCCOC(F)(F)F)n1-c1ccc(C#N)cc1 (mixture of isomers) [Example 155B, (±)-4-(3-(2-((1R,2R,4R)-2-Hydroxy-7-azabicyclo[2.2.1]heptan-7-yl(acetyl)-2-methyl-5-(3-(trifluoromethoxy)propyl)-1H-pyrrol-1-yl)benzonitrile]
Second: Cc1c(C(=O)CN2C3CCC2[C@@H](O)C3)cc(C#N)n1-c1ccc(C#N)cc1 (mixture of isomers) [Example 47B, (±)-1-(4-Cyanophenyl)-4-(2-((2R)-2-hydroxy-7-azabicyclo[2.2.1]heptan-7-yl)acetyl)-5-methyl-1H-pyrrole-2-carbonitrile]
The IC50 of the first is higher: 50 to 500 nM for the first, under 50 nM for the second. The second is the more potent here.

Going from `Cc1c(C(=O)CN2C3CCC2[C@@H](O)C3)cc(C2CC(F)C2)n1-c1ccc(C#N)cc1` (mixture of isomers) [Example 132B, (±)-4-(5-(3-Fluorocyclobutyl)-3-(2-((2R)-2-hydroxy-7-azabicyclo[2.2.1]heptan-7-yl)acetyl)-2-methyl-1H-pyrrol-1-yl)benzonitrile] to `Cc1cc(C(=O)CN2[C@@H]3CC[C@H]2[C@](O)(C(C)(C)C)C3)c(C)n1-c1ccc(C#N)cc1` (racemic) [Example 72B, (±)-4-(3-(2-((1R,2S,4S)-2-(tert-Butyl)-2-hydroxy-7-azabicyclo[2.2.1]heptan-7-yl)acetyl)-2,5-dimethyl-1H-pyrrol-1-yl)benzonitrile], the IC50 rises from under 50 nM to over 500 nM.

Compound `Cc1cc(C(=O)CN2C3CCC2(C(C)O)CC3)c(C)n1-c1ccc(C#N)cc1` (racemic) [Example 143B, (±)-4-(3-(2-(1-((R)-1-Hydroxyethyl)-7-azabicyclo[2.2.1]heptan-7-yl)acetyl)-2,5-dimethyl-1H-pyrrol-1-yl)benzonitrile] has an IC50 of 50 to 500 nM.

The compounds below were run against T1, USP14 (assay: Usp14 inhibition assay (Example 5A, A-series compounds)). Conditions: average value from a minimum of two experimental determinations; read-out: Usp14 IC50 Category.
Assay type: biochemical
Description: Example 5A: Usp14 Inhibition Assay
as §1

`Cc1c(C(=O)CN2C3CCC2CC3)c2ccc(CCC#N)cc2n1-c1ccc(Cl)cc1` [Example 8A, 3-(3-(2-(7-Azabicyclo[2.2.1]heptan-7-yl)acetyl)-1-(4-chlorophenyl)-2-methyl-1H-indol-6-yl)propanenitrile] and `Cc1c(C(=O)CN2C3CCC2CC3)c2ccc(CCCC#N)cc2n1-c1ccc(Cl)cc1` [Example 17A, 4-(3-(2-(7-Azabicyclo[2.2.1]heptan-7-yl)acetyl)-1-(4-chlorophenyl)-2-methyl-1H-indol-6-yl)butanenitrile] cannot be ordered by IC50: under 50 nM for the first, under 50 nM for the second.

`CO[C@H]1CC2CCC1N2CC(=O)c1c(C)n(-c2ccc(Cl)cc2)c2cc(CCCC#N)ccc12` (mixture of isomers) [Example 19A, (±)-4-(1-(4-Chlorophenyl)-3-(2-((2S)-2-methoxy-7-azabicyclo[2.2.1]heptan-7-yl)acetyl)-2-methyl-1H-indol-6-yl)butanenitrile] and `Cc1c(C(=O)CN2C3CCC2[C@@H](O)C3)c2ccc(CCCC#N)cc2n1-c1ccc(Cl)cc1` (mixture of isomers) [Example 18A, (±)-4-(1-(4-Chlorophenyl)-3-(2-((2S)-2-hydroxy-7-azabicyclo[2.2.1]heptan-7-yl)acetyl)-2-methyl-1H-indol-6-yl)butanenitrile] cannot be ordered by IC50: under 50 nM for the first, under 50 nM for the second.

`CO[C@H]1C[C@@H]2CC[C@H]1N2CC(=O)c1c(C)n(-c2ccc(Cl)cc2)c2cc(CC3COC3)ccc12` [Example 12A, 1-(1-(4-Chlorophenyl)-2-methyl-6-(oxetan-3-ylmethyl)-1H-indol-3-yl)-2-((1R,2S,4S)-2-methoxy-7-azabicyclo[2.2.1]heptan-7-yl)ethan-1-one] and `Cc1c(C(=O)CN2[C@@H]3CC[C@H]2C[C@@H](O)C3)c2ccc(CC3COC3)cc2n1-c1ccc(Cl)cc1` [Example 22A, 1-(1-(4-Chlorophenyl)-2-methyl-6-(oxetan-3-ylmethyl)-1H-indol-3-yl)-2-((1R,3r,5S)-3-hydroxy-8-azabicyclo[3.2.1]octan-8-yl)ethan-1-one] fall in the same range of IC50: 50 to 100 nM for the first, 50 to 100 nM for the second.

Going from `Cc1c(C(=O)CN2CCC(O)CC2)c2ccc(CCS(C)(=O)=O)cc2n1-c1ccc(Cl)cc1` [Example 7A, 1-(1-(4-Chlorophenyl)-2-methyl-6-(2-(methylsulfonyl)ethyl)-1H-indol-3-yl)-2-(4-hydroxypiperidin-1-yl)ethan-1-one] to `Cc1c(C(=O)CN2CCC(O)CC2)c2ccc(CCC#N)cc2n1-c1ccc(Cl)cc1` [Example 9A], the IC50 rises from under 50 nM to over 100 nM.

`Cc1c(C(=O)CN2C3CCC2CC(O)C3)c2ccc(CCS(C)(=O)=O)cc2n1-c1ccc(Cl)cc1` [Example 5A, 1-(1-(4-Chlorophenyl)-2-methyl-6-(2-(methylsulfonyl)ethyl)-1H-indol-3-yl)-2-((1R,3S,5S)-3-hydroxy-8-azabicyclo[3.2.1]octan-8-yl)ethan-1-one] and `Cc1c(C(=O)CN2[C@H]3CC[C@@H]2[C@@H](O)C3)c2ccc(CCS(C)(=O)=O)cc2n1-c1ccc(Cl)cc1` [Example 6A, 1-(1-(4-Chlorophenyl)-2-methyl-6-(2-(methylsulfonyl)ethyl)-1H-indol-3-yl)-2-((1R,2S,4S)-2-hydroxy-7-azabicyclo[2.2.1]heptan-7-yl)ethan-1-one] cannot be ordered by IC50: under 50 nM for the first, under 50 nM for the second.

First: Cc1c(C(=O)CN2C3CCC2CC3)c2ccc(CC3COC3)cc2n1-c1ccc(Cl)cc1 [Example 11A, 2-(7-Azabicyclo[2.2.1]heptan-7-yl)-1-(1-(4-chlorophenyl)-2-methyl-6-(oxetan-3-ylmethyl)-1H-indol-3-yl)ethan-1-one]
Second: Cc1c(C(=O)CN2CCC(O)CC2)c2ccc(CC3COC3)cc2n1-c1ccc(Cl)cc1 [Example 14A, 1-(1-(4-Chlorophenyl)-2-methyl-6-(oxetan-3-ylmethyl)-1H-indol-3-yl)-2-(4-hydroxypiperidin-1-yl)ethan-1-one]
The IC50 of the first is lower: under 50 nM for the first, 50 to 100 nM for the second. The first is the more potent here.

First: Cc1c(C(=O)CN2[C@@H]3CC[C@H]2C[C@H](O)C3)c2ccc(CCC#N)cc2n1-c1ccc(Cl)cc1 [Example 21A, 3-(1-(4-Chlorophenyl)-3-(2-((1R,3S,5S)-3-hydroxy-8-azabicyclo[3.2.1]octan-8-yl)acetyl)-2-methyl-1H-indol-6-yl)propanenitrile]
Second: Cc1c(C(=O)CN2C3CCC2CC(O)C3)c2ccc(CCCC#N)cc2n1-c1ccc(Cl)cc1 (centres unmarked) [Example 25A, 4-(1-(4-Chlorophenyl)-3-(2-(3-hydroxy-8-azabicyclo[3.2.1]octan-8-yl)acetyl)-2-methyl-1H-indol-6-yl)butanenitrile]
The IC50 of the first is lower: 50 to 100 nM for the first, over 100 nM for the second.

First: Cc1c(C(=O)CN2C3CC[C@@H]2C[C@](O)(C(C)(C)C)C3)c2ccc(CCC#N)cc2n1-c1ccc(Cl)cc1 (stereo in doubt) [Example 31A, 3-(3-(2-(3-(tert-Butyl)-3-hydroxy-8-azabicyclo[3.2.1]octan-8-yl)acetyl)-1-(4-chlorophenyl)-2-methyl-1H-indol-6-yl)propanenitrile]
Second: Cc1c(C(=O)CN2[C@@H]3CC[C@H]2C[C@](O)(C(C)C)C3)c2ccc(CCC#N)cc2n1-c1ccc(Cl)cc1 [Example 32A, 3-(1-(4-Chlorophenyl)-3-(2-(3-hydroxy-3-isopropyl-8-azabicyclo[3.2.1]octan-8-yl)acetyl)-2-methyl-1H-indol-6-yl)propanenitrile]
The IC50 of the first is higher: over 100 nM for the first, 50 to 100 nM for the second. The second is the more potent here.

`Cc1c(C(=O)CN2[C@@H]3CCC[C@H]2CC3)c2ccc(CCS(C)(=O)=O)cc2n1-c1ccc(Cl)cc1` [Example 2A, 2-((1R,5S)-8-Azabicyclo[3.2.1]octan-8-yl)-1-(1-(4-chlorophenyl)-2-methyl-6-(2-(methylsulfonyl)ethyl)-1H-indol-3-yl)ethan-1-one] and `Cc1c(C(=O)CN2C3CCC2CC3)c2ccc(CCS(=O)(=O)C3CC3)cc2n1-c1ccc(Cl)cc1` [Example 16A, 2-(7-Azabicyclo[2.2.1]heptan-7-yl)-1-(1-(4-chlorophenyl)-6-(2-(cyclopropylsulfonyl)ethyl)-2-methyl-1H-indol-3-yl)ethan-1-one] cannot be ordered by IC50: under 50 nM for the first, under 50 nM for the second.
